Tests used:
[1] = Human microsome stability assay; type: in vitro ADME; conditions: 1 μM test compound, 0.5 mg/mL liver microsomal protein, 37° C.
Experimental: Human microsome stability assay
The human microsomal stability assay is used for early assessment of metabolic stability of a test compound in human liver microsomes.
Human liver microsomes (Cat.NO.: 452117, Corning, USA;Cat.NO.:H2610, Xenotech, USA) were preincubated with test compound for 10 minutes at 37° C. in 100 mM potassium phosphate buffer, pH 7.4. The reactions were initiated by adding NADPH regenerating system. The final incubation mixtures contained 1 μM test compound, 0.5 mg/mL liver microsomal protein, 1 mM MgCl2, 1 mM NADP, 1 unit/mL isocitric dehydrogenase and 6 mM isocitric acid in 100 mM potassium phosphate buffer, pH 7.4. After incubation times of 0, 3, 6, 9, 15 and 30 minutes at 37° C., 300 μL of cold acetonitrile (including internal standard) was added to 100 μL incubation mixture to terminate the reaction. Following precipitation and centrifugation, the amount of compound remaining in the samples were determined by LC-MS/MS. Controls of no NADPH regenerating system at zero and 30 minutes were also prepared and analyzed.

human TLR7 = biological target: T1, human TLR7 (Homo sapiens, UniProt Q9NYK1); assay: HEK293-Blue-hTLR-7 cells assay; type: cell-based; conditions: HEK293-Blue-hTLR7 cells, R848 stimulation, 20 hrs, SEAP reporter; read-out: HEK/hTLR7 IC50
T1 construct: host or cells: HEK293-Blue-hTLR-7 (HEK293)
T1 sequence (Q9NYK1 27-1049): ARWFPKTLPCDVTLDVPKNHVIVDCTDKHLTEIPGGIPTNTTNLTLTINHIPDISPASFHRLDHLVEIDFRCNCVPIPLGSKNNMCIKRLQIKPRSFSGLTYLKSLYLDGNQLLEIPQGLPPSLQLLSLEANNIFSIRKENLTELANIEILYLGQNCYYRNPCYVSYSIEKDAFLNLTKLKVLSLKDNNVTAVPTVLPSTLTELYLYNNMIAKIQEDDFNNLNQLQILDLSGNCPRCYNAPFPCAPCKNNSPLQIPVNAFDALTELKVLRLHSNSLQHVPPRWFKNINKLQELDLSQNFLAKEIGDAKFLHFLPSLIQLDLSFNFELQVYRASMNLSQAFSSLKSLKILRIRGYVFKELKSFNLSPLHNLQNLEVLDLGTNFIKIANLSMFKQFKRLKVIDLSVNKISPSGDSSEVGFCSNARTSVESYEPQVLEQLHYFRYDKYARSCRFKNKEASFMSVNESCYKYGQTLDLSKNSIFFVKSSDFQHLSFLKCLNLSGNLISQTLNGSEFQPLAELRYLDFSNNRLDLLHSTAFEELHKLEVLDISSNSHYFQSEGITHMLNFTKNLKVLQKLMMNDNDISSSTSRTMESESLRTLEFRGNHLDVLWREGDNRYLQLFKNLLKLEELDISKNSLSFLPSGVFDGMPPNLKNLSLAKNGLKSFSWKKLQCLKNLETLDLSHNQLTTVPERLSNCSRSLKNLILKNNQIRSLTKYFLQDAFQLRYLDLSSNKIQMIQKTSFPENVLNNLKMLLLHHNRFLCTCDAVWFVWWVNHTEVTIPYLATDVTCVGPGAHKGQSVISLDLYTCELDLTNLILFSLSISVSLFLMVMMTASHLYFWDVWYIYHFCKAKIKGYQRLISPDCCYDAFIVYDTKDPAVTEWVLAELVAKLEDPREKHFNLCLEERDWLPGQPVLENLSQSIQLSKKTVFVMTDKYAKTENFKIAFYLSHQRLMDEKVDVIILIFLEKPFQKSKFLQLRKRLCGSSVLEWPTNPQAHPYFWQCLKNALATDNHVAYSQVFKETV
Experimental: The following tests were carried out in order to determine the activity of the compounds of formula (I) and (Ia) in HEK293-Blue-hTLR-7/8/9 cells assay.
HEK293-Blue-hTLR-7 cells assay:
A stable HEK293-Blue-hTLR-7 cell line was purchased from InvivoGen (Cat. #: hkb-htlr7, San Diego, Calif., USA). These cells were originally designed for studying the stimulation of human TLR7 by monitoring the activation of NE-κB. A SEAP (secreted embryonic alkaline phosphatase) reporter gene was placed under the control of the IFN-β minimal promoter fused to five NE-κB and AP-1-binding sites. The SEAP was induced by activating NE-κB and AP-1 via stimulating HEK-Blue hTLR7 cells with TLR7 ligands. Therefore the reporter expression was declined by TLR7 antagonist under the stimulation of a ligand, such as R848 (Resiquimod), for incubation of 20 hrs. The cell culture supernatant SEAP reporter activity was determined using QUANTI-Blue™ kit (Cat. #: rep-qbl, Invivogen, San Diego, Ca, USA) at a wavelength of 640 nm, a detection medium that turns purple or blue in the presence of alkaline phosphatase.
HEK293-Blue-hTLR7 cells were incubated at a density of 250,000-450,000 cells/mL in a volume of 170 μL in a 96-well plate in Dulbecco's Modified Eagle's medium (DMEM) containing 4.5 g/L glucose, 50 U/mL penicillin, […], […], 2 mM L-glutamine, 10% (v/v) heat-inactivated fetal bovine serum with addition of 20 μL test compound in a serial dilution in the presence of final DMSO at 1% and 10 μL of 20 uM R848 in above DMEM, perform incubation under 37° C. in a CO2 incubator for 20 hrs. Then 20 μL of the supernatant from each well was incubated with 180 μL Quanti-blue substrate solution at 37° C. for 2 hrs and the absorbance was read at 620˜655 nm using a spectrophotometer. The signalling pathway that TLR7 activation leads to downstream NE-κB activation has been widely accepted, and therefore similar reporter assay was modified for evaluating TLR7 antagonist.

| Clearance of Human microsome [1] | IC50 (human TLR7) | Structure (SMILES) |
| --- | --- | --- |
| 6.39 mL/min/kg | 13 nM | C[C@@H]1CN(c2ccc(C#N)c3ncccc23)C[C@H](CN2CC3(C2)CN(c2ccnc(C4CC4)c2)C3)O1 [Example 49, 5-[(2S,6R)-2[[2-(2-cyclopropyl-4-pyridyl)-2,6-diazaspiro[3.3]heptan-6-yl]methyl]-6-methyl-morpholin-4-yl]quinoline-8-carbonitrile] |
| 7.14 mL/min/kg | 65 nM | Cc1cc(N2CC(NC[C@H]3CN(c4ccc(C#N)c5ncccc45)C[C@@H](C)O3)C2)cc(CO)n1 [Example 30] |
| 6.15 mL/min/kg | 44 nM | Cc1cc(NC2CCN(C[C@H]3CN(c4ccc(C#N)c5ncccc45)C[C@@H](C)O3)C2)cc(CO)n1 (stereo partly drawn) [Example 6] |
| 6.35 mL/min/kg | 28 nM | Cc1cc(N2CC3(CN(C[C@H]4CN(c5ccc(C#N)c6ncccc56)C[C@@H](C)O4)C3)C2)cc(CO)n1 [Example 1, 5-[(2S,6R)-2-[[2-[2-(hydroxymethyl)-6-methyl-4-pyridyl]-2,6-diazaspiro[3.3]heptan-6-yl]methyl]-6-methyl-morpholin-4-yl]quinoline-8-carbonitrile] |
| 6.15 mL/min/kg | 26 nM | Cc1cc(NC2CN(C[C@H]3CN(c4ccc(C#N)c5ncccc45)C[C@@H](C)O3)C2)cc(C)n1 [Example 7] |
| 6.15 mL/min/kg | 9 nM | Cc1cc(N2CCN(C[C@H]3CN(c4ccc(C#N)c5ncccc45)C[C@@H](C)O3)[C@@H](C)C2)cc(CO)n1 [Example 4A] |
| 6.15 mL/min/kg | 200 nM | C[C@@H]1CN(c2ccc(C#N)c3ncccc23)C[C@H](CNC2CCN(c3ccnc(N)c3)CC2)O1 [Example 20, 5-[(2S,6R)-2-[[[1-(2-amino-4-pyridyl)-4-piperidyl]amino]methyl]-6-methyl-morpholin-4-yl]quinoline-8-carbonitrile] |
| 6.15 mL/min/kg | 34 nM | Cc1cc(N2CC(N(C)C[C@H]3CN(c4ccc(C#N)c5ncccc45)C[C@@H](C)O3)C2)cc(CO)n1 [Example 37] |
| 6.15 mL/min/kg | 8 nM | Cc1cc(N2CCN(C[C@H]3CN(c4ccc(C#N)c5ncccc45)C[C@@H](C)O3)CC2)cc(N)n1 [Example 40, 5-[(2S,6R)-2-[[4-(2-amino-6-methyl-4-pyridyl)piperazin-1-yl]methyl]-6-methyl-morpholin-4-yl]quinoline-8-carbonitrile] |
| 7.47 mL/min/kg | 59 nM | Cc1cc(NC2CCN(C[C@H]3CN(c4ccc(C#N)c5ncccc45)C[C@@H](C)O3)CC2)cc(CO)n1 [Example 5] |
| 6.87 mL/min/kg | 55 nM | C[C@@H]1CN(c2ccc(C#N)c3ncccc23)C[C@H](CN2CC3(C2)CN(c2ccnc(C(C)(C)O)c2)C3)O1 [Example 48, 5-[(2S,6R)-2[[2-[2-(1-hydroxy-1-methyl-ethyl)-4-pyridyl]-2,6-diazaspiro[3.3]heptan-6-yl]methyl]-6-methyl-morpholin-4-yl]quinoline-8-carbonitrile] |
| 7.66 mL/min/kg | 32 nM | CC(O)c1cc(N2CC3(CN(C[C@H]4CN(c5ccc(C#N)c6ncccc56)C[C@@H](C)O4)C3)C2)ccn1 (stereo partly drawn) [Example 46, 5-[(2S,6R)-2-[[2-[2-(1-hydroxyethyl)-4-pyridyl]-2,6-diazaspiro[3.3]heptan-6-yl]methyl]-6-methyl-morpholin-4-yl]quinoline-8-carbonitrile] |

From patent US20210269451A1, “PYRIDINYL HETEROCYCLYL COMPOUNDS FOR THE TREATMENT OF AUTOIMMUNE DISEASE” (Hoffmann-La Roche Inc., priority 2018, published 2021)
